Eight compounds from ChEMBL document CHEMBL1201862, “PubChem BioAssay data set” (2004) can be followed below.

Structures are written as SMILES.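 A five-concentration, 48-hour dose response in 96-well plates underlies each endpoint, interpolated linearly between surrounding concentrations. GI50: concentration for 50% inhibition of growth.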 Calls of active or inactive are those of the source. Rule as the data show it: active = GI50 up to about 1.1 µM and inactive = higher. Bounds are passed on as bounds.

Among the test systems are A498; ACHN; DU-145; HCT-116; HCT-15; HOP-92; HT-29; Hs-578T; MDA-MB-231; MDA-N; MOLT-4; NCI-H226; NCI-H23; NCI-H522; OVCAR-3; OVCAR-5; RXF 393; SF-539; SK-OV-3; UACC-257.
Common to all, as to experiment: inhibition of tumour cell growth, NCI panel, 48 h

In the case of `COC(=O)c1c(O)ccc2c1c1c(n2Cc2ccc(Cl)cc2Cl)C(=O)c2ccccc2C1=O`, the GI50 is 18.1 µM (inactive) in the assay with A498; 7.85 µM (inactive) with ACHN; 11.6 µM (inactive) with DU-145; 3.91 µM (inactive) in the assay with HCT-116; 5.56 µM in the assay on HCT-15; 12.2 µM (inactive) in the assay with HOP-92. Further, the GI50 is 17.6 µM (inactive) with HT-29; 9.62 µM (inactive) in the assay on Hs-578T; 10.9 µM (inactive) with MDA-MB-231; 12.1 µM (inactive) in the assay on MDA-N; 2.27 µM (inactive) in the assay with MOLT-4; 10.9 µM (inactive) in the assay on NCI-H226. For the same compound, the GI50 is 10.5 µM (inactive) in the assay with NCI-H23; 7.46 µM (inactive) with NCI-H522; 6.37 µM (inactive) with OVCAR-3; 19.5 µM (inactive) in the assay on OVCAR-5; 4.09 µM (inactive) in the assay with RXF 393; 14.4 µM (inactive) with SF-539. In addition, the GI50 was 14.3 µM (inactive) in the assay on SK-OV-3 and 15.2 µM (inactive) in the assay with UACC-257.
`Cc1c(-c2ccccc2)c(C#N)c2nnn(C3CCCCC3)c(=O)n12`: the GI50 was 65.8 µM (inactive) in the assay on A498; 50.5 µM (inactive) in the assay on ACHN; > 100 µM (inactive) with DU-145; 52.6 µM (inactive) with HCT-116; more than 100 µM with HCT-15; 24 µM (inactive) with HOP-92. The GI50 in the assay on HT-29 was 11.6 µM (inactive); in the assay with Hs-578T it was 97.9 µM (inactive); with MDA-MB-231, 21.6 µM (inactive); in the assay on MDA-N it was > 100 µM (inactive); in the assay with NCI-H226 it was 35.8 µM (inactive); in the assay on NCI-H23, > 100 µM (inactive). In addition, the GI50 is > 100 µM (inactive) in the assay with NCI-H522; > 100 µM (inactive) with OVCAR-3; 94.4 µM (inactive) in the assay on OVCAR-5; 19.8 µM (inactive) in the assay with RXF 393; 47.4 µM (inactive) in the assay with SF-539; 60.3 µM (inactive) in the assay on SK-OV-3. In addition, the GI50 with UACC-257 was > 100 µM (inactive).
Take `O=C(O)C1CCCN1Cc1c[nH]c2ccccc12` (stereo unspecified): the GI50 in the assay with A498 is > 100 µM (inactive); in the assay on ACHN, > 100 µM (inactive); in the assay with DU-145, > 100 µM (inactive); in the assay with HCT-116, > 100 µM (inactive); in the assay with HCT-15, more than 100 µM; in the assay on HOP-92 it was > 100 µM (inactive). Besides, the GI50 in the assay on HT-29, in the assay on Hs-578T, in the assay on MDA-MB-231, in the assay with MDA-N, with MOLT-4 and with NCI-H226 was > 100 µM (inactive) each time. Further, the GI50 in the assay with NCI-H23, with NCI-H522, with OVCAR-3, in the assay with OVCAR-5, in the assay with RXF 393 and in the assay with SF-539 was > 100 µM (inactive) throughout. The GI50 with SK-OV-3 and in the assay on UACC-257 was > 100 µM (inactive) in each case.
`COc1ccc([C@H]2[C@H]3COC(=O)[C@H]3C(C#N)=C3Sc4ccccc4N32)cc1`: the GI50 with A498 is 43.7 µM (inactive); with ACHN it was 37.6 µM (inactive); with DU-145, 19.2 µM (inactive); in the assay with HCT-116, 21.7 µM (inactive); with HCT-15, 25.8 µM; in the assay on HOP-92, 85.1 µM (inactive). Besides, the GI50 with HT-29 was 12.4 µM (inactive); in the assay on Hs-578T, 31.1 µM (inactive); with MDA-MB-231, 28.3 µM (inactive); in the assay with MDA-N it was 28.8 µM (inactive); in the assay with MOLT-4 it was 13.4 µM (inactive); in the assay on NCI-H226, 33.1 µM (inactive). Further, the GI50 in the assay with NCI-H23 was 22.8 µM (inactive); with NCI-H522 it was 18.1 µM (inactive); in the assay on OVCAR-3, 16.4 µM (inactive); in the assay on OVCAR-5, 80.5 µM (inactive); in the assay on RXF 393, 3.11 µM (inactive); in the assay on SF-539 it was 22.3 µM (inactive). In addition, the GI50 with SK-OV-3 was 39.9 µM (inactive); in the assay on UACC-257, 40.6 µM (inactive).
Consider `O=C(Oc1ccccc1)c1cc2cc(CCl)ccc2oc1=O`, for which the GI50 with A498 was 19.1 µM (inactive); in the assay with ACHN it was 8.99 µM (inactive); in the assay on DU-145, 27.7 µM (inactive); in the assay on HCT-116, 34.4 µM (inactive); in the assay with HCT-15, 31.5 µM; in the assay with HOP-92, 14.7 µM (inactive). Besides, the GI50 with HT-29 is 24.4 µM (inactive); with Hs-578T, 16.9 µM (inactive); with MDA-MB-231, 32.1 µM (inactive); in the assay on MDA-N it was 19.9 µM (inactive); with MOLT-4, 18.8 µM (inactive); with NCI-H226 it was > 100 µM (inactive). The GI50 is 15.5 µM (inactive) in the assay with NCI-H23; 6.17 µM (inactive) with NCI-H522; 29.1 µM (inactive) in the assay on OVCAR-3; 97.7 µM (inactive) in the assay with OVCAR-5; 13.5 µM (inactive) in the assay on RXF 393; 30.6 µM (inactive) in the assay with SF-539. Further, the results for the GI50 in the assay on SK-OV-3 and in the assay on UACC-257 were 28.6 µM (inactive) and 11.6 µM (inactive), respectively.
Regarding `COc1ccc2c(c1)CC[C@@H]1C2CC[C@]2(C)C(=O)N(CCN(C)C)C(=O)CC12` (stereo partly specified), the GI50 in the assay on A498, with ACHN, with DU-145, in the assay on HCT-116, with HOP-92 and in the assay with HT-29 was > 100 µM (inactive) each time. The GI50 with Hs-578T, in the assay with MDA-MB-231, in the assay on MDA-N, in the assay on MOLT-4, with NCI-H226 and with NCI-H23 was > 100 µM (inactive) in each case. Moreover, the GI50 in the assay on NCI-H522, with OVCAR-3, in the assay with OVCAR-5, with RXF 393, in the assay on SF-539 and in the assay on SK-OV-3 was > 100 µM (inactive) in each case. The GI50 in the assay with UACC-257 was > 100 µM (inactive).
For the compound `C(=N/Nc1ccc(-c2nc3ccccc3[nH]2)cc1)/c1c(-c2ccccc2)[nH]c2ccccc12`, the GI50 is 0.516 µM (active) with A498; 0.575 µM (active) with ACHN; 0.733 µM (active) in the assay with DU-145; 0.424 µM (active) in the assay with HCT-116; 0.409 µM with HCT-15; > 100 µM (inactive) in the assay with HOP-92. Besides, the GI50 with HT-29 is 0.222 µM (active); in the assay on Hs-578T, 0.267 µM (active); in the assay on MDA-MB-231, 0.475 µM (active); with MDA-N, 0.0303 µM (active); in the assay on MOLT-4, 0.658 µM (active); with NCI-H226, 0.408 µM (active). The GI50 was 0.973 µM (active) in the assay with NCI-H23; 0.34 µM (active) in the assay with NCI-H522; 0.219 µM (active) with OVCAR-3; 1.6 µM (inactive) in the assay on RXF 393; 0.444 µM (active) in the assay on SF-539; 0.32 µM (active) in the assay with SK-OV-3. In addition, the GI50 in the assay on UACC-257 is 0.678 µM (active).
Consider `O=C(CCc1cc(O)ccc1O)OCCc1ccccc1`, for which the GI50 was > 100 µM (inactive) with A498; 4.33 µM (inactive) in the assay with ACHN; 19.9 µM (inactive) in the assay with DU-145; 13 µM (inactive) with HCT-116; 11.1 µM in the assay on HCT-15; 2.96 µM (inactive) in the assay on HOP-92. The GI50 with HT-29 was 41.1 µM (inactive); in the assay with Hs-578T, 16.1 µM (inactive); in the assay with MDA-MB-231 it was 15.6 µM (inactive); with MDA-N it was 12.7 µM (inactive); with MOLT-4, 1.36 µM (inactive); in the assay with NCI-H226 it was > 28.3 µM (inactive). For the same compound, the GI50 in the assay with NCI-H23 was 32.7 µM (inactive); in the assay on NCI-H522, 0.28 µM (active); in the assay on OVCAR-5, 27.4 µM (inactive); in the assay with RXF 393, 11.7 µM (inactive); in the assay with SF-539, 3.83 µM (inactive); in the assay with SK-OV-3 it was > 100 µM (inactive). Also, the GI50 in the assay with UACC-257 was 12.4 µM (inactive).
